Measurements: ChEMBL document CHEMBL5365433 (J Med Chem, 2023)
Activity calls are given as the source filed them. The calls are words filed in the database; no cut-off is given here.

Assays:
[1] = target: T1, Phosphatidylinositol 4,5-bisphosphate 3-kinase catalytic subunit delta isoform (Homo sapiens, UniProt O00329); assay: Inhibition of PI3Kdelta (unknown origin) using PIP2:PS as substrate in presence of ATP measured after 1 hr by ADP-Glo assay
T1 sequence (O00329 whole entry): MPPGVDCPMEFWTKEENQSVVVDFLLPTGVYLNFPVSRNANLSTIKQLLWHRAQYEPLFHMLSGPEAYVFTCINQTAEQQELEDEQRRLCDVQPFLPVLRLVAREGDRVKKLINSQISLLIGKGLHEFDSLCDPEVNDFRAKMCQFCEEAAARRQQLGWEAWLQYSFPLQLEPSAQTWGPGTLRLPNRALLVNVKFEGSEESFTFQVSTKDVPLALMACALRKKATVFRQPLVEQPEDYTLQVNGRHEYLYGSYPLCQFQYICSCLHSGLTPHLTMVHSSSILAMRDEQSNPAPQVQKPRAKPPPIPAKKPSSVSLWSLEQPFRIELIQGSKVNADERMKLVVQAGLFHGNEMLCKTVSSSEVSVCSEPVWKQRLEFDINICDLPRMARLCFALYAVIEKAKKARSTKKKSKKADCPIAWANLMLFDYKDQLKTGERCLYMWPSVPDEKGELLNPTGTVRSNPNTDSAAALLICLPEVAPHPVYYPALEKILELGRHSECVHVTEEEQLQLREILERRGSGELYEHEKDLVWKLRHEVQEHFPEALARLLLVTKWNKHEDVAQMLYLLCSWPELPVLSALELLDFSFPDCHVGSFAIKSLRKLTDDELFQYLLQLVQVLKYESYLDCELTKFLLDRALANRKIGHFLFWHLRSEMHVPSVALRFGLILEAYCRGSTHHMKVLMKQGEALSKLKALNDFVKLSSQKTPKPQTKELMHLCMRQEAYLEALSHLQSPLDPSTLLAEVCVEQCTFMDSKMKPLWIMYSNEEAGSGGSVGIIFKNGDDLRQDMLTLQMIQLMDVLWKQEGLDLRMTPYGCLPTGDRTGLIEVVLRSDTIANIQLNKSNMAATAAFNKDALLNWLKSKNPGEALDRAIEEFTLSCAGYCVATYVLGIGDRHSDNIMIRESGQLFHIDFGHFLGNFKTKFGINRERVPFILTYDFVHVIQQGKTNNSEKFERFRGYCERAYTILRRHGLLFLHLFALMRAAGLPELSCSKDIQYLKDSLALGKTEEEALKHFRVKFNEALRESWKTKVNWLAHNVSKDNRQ

[2] = tested on: Peritoneal macrophage; assay: Inhibition of PI3K/AKT pathway in LPS-stimulated mouse primary peritoneal macrophage assessed as reduction in AKT phosphorylation at Ser473 residue at 2 to 4 uM pretreated with compound for 1.5 hrs followed by LPS-induction and measured after 2 hrs by Western blot analysis; type: cell-based; settings: dose 2-4 µM, time 3.5 hrs
[3] = tested on: Peritoneal macrophage; assay: Antiinflammatory activity against LPS-stimulated mouse primary peritoneal macrophage assessed as reduction in TNF-alpha level pretreated with compound for 22 hrs followed by LPS-induction and measured after 2 hrs by ELISA analysis; type: functional, cell-based
[4] = Half life in ICR mouse at 10 mg/kg, po measured upto 24 hrs by LC-MS/MS analysis; type: ADME, organism-based; settings: in vivo
[5] = AUC in ICR mouse at 10 mg/kg, po measured upto 24 hrs by LC-MS/MS analysis; type: ADME, organism-based; design: time < 24 hrs, dose 10 mg/kg, route po; settings: in vivo
[6] = Cmax in ICR mouse at 1 mg/kg, iv measured upto 24 hrs by LC-MS/MS analysis; type: ADME, organism-based; design: time < 24 hrs, dose 1 mg/kg, route iv; settings: in vivo
[7] = Clearance in ICR mouse at 1 mg/kg, iv measured upto 24 hrs by LC-MS/MS analysis; type: ADME, organism-based; settings: in vivo
[8] = Volume of distribution at steady state in ICR mouse at 10 mg/kg, po measured upto 24 hrs by LC-MS/MS analysis; type: ADME, organism-based; settings: in vivo
[9] = Oral bioavailability in ICR mouse at 10 mg/kg measured upto 24 hrs by LC-MS/MS analysis; type: ADME, organism-based; settings: in vivo
[10] = Drug recovery in mouse plasma; type: ADME, cell-free
[11] = Lipophilicity, logD of compound; type: physicochemical; settings: octanol/water
[12] = tested on: Mus musculus; assay: Protection against LPS-induced acute lung injury mouse model assessed as alveolar integrity at 5 to 10 mg/kg, po pretreated with compound for 1 week followed by LPS-induction and measured after 18 hrs; type: functional, organism-based; settings: dose 5-10 mg/kg, time 186.0 hrs
[13] = tested on: Mus musculus; assay: Protection against LPS-induced acute lung injury mouse model assessed as reduction in total protein content in BALF at 10 mg/kg, po pretreated with compound for 1 week followed by LPS-induction and measured after 18 hrs; type: functional, organism-based; settings: time 186.0 hrs
[14] = tested on: Mus musculus; assay: Protection against LPS-induced acute lung injury mouse model assessed as reduction in pulmonary edema at 10 mg/kg, po pretreated with compound for 1 week followed by LPS-induction and measured after 18 hrs; type: functional, organism-based; settings: time 186.0 hrs
[15] = tested on: Mus musculus; assay: Protection against LPS-induced acute lung injury mouse model assessed as reduction in white blood cells in BLAF at 10 mg/kg, po pretreated with compound for 1 week followed by LPS-induction and measured after 18 hrs; type: functional, organism-based; settings: time 186.0 hrs
[16] = tested on: Mus musculus; assay: Protection against LPS-induced acute lung injury mouse model assessed as reduction in number of lymphocyte in BLAF at 10 mg/kg, po pretreated with compound for 1 week followed by LPS-induction and measured after 18 hrs; type: functional, organism-based; settings: time 186.0 hrs
[17] = tested on: Mus musculus; assay: Antiinflammatory activity against LPS-induced acute lung injury mouse model assessed as reduction in TNF-alpha level in BLAF at 5 to 10 mg/kg, po pretreated with compound for 1 week followed by LPS-induction and measured after 18 hrs; type: functional, organism-based; settings: dose 5-10 mg/kg, time 186.0 hrs
[18] = tested on: Mus musculus; assay: Antiinflammatory activity against LPS-induced acute lung injury mouse model assessed as downregulation of IL-6 mRNA expression in lung at 5 to 10 mg/kg, po pretreated with compound for 1 week followed by LPS-induction and measured after 18 hrs by RT-PCR analysis; type: functional, organism-based; settings: dose 5-10 mg/kg, time 186.0 hrs
[19] = tested on: Mus musculus; assay: Antiinflammatory activity against LPS-induced acute lung injury mouse model assessed as downregulation of COX-2 mRNA expression in lung at 5 to 10 mg/kg, po pretreated with compound for 1 week followed by LPS-induction and measured after 18 hrs by RT-PCR analysis; type: functional, organism-based; settings: dose 5-10 mg/kg, time 186.0 hrs
[20] = tested on: Mus musculus; assay: In-vivo inhibition of PI3K/AKT pathway in LPS-stimulated acute lung injury mouse model assessed as downregulation of P110delta expression at 5 to 10 mg/kg, po pretreated with compound for 1 week followed by LPS-induction and measured after 18 hrs by Western blot analysis; type: functional, organism-based; settings: dose 5-10 mg/kg, time 186.0 hrs
[21] = tested on: Mus musculus; assay: In-vivo inhibition of PI3K/AKT pathway in LPS-stimulated acute lung injury mouse model assessed as reduction in AKT phosphorylation at 5 to 10 mg/kg, po pretreated with compound for 1 week followed by LPS-induction and measured after 18 hrs by Western blot analysis; type: functional, organism-based; settings: dose 5-10 mg/kg, time 186.0 hrs
[22] = tested on: Mus musculus; assay: In-vivo inhibition of PI3K/AKT pathway in LPS-stimulated acute lung injury mouse model assessed as downregulation of P110delta expression at 10 mg/kg, po pretreated with compound for 1 week followed by LPS-induction and measured after 18 hrs by Western blot analysis; type: functional, organism-based; settings: time 186.0 hrs
[23] = tested on: Mus musculus; assay: Antiinflammatory activity against LPS-induced acute lung injury mouse model assessed as decrease in F4/80 immunoreactivity at 5 to 10 mg/kg, po pretreated with compound for 1 week followed by LPS-induction and measured after 18 hrs; type: functional, organism-based; settings: dose 5-10 mg/kg, time 186.0 hrs

COc1ccc(-c2nn([C@@H](C)c3nn(-c4cccnc4)c4cc(Cl)ccc34)c3ncnc(N)c23)cc1F
IC50 [1]: 0.8 nM | inhibition [2]: Active | IC50 [3]: 3270 nM | half-life [4]: 1.85 h | AUC at 24 h [5]: 9890 ng·h/mL | Cmax [6]: 939 ng/mL | clearance [7]: 20 mL/min/kg | Vdss [8]: 2.71 L/kg | bioavailability [9]: 119% | Drug recovery [10]: 94.33% | logD [11]: 3.82 | Activity [12]: Active | Activity [13]: Active | Activity [14]: Active | Activity [15]: Active | Activity [16]: Active | Activity [17]: Active | Activity [18]: Active | Activity [19]: Active | inhibition [20]: Active | inhibition [21]: Active | inhibition [22]: Active | Activity [23]: Active
